Like-named read-outs stand apart in the source and are kept apart here.
Tests used:
Test in all cases: pNP-β-GlcNAc hydrolysis, kinetic assay at […] nm
Assay type in all cases: biochemical
[1] = biological target: T1, O-GlcNAcase from Bacteroides thetaiotaomicron (Bacteroides thetaiotaomicron, UniProt Q89ZI2)
T1 construct: gene BT_4395; gene from D. Vocadlo; GH84
T1 sequence (Q89ZI2 22-737): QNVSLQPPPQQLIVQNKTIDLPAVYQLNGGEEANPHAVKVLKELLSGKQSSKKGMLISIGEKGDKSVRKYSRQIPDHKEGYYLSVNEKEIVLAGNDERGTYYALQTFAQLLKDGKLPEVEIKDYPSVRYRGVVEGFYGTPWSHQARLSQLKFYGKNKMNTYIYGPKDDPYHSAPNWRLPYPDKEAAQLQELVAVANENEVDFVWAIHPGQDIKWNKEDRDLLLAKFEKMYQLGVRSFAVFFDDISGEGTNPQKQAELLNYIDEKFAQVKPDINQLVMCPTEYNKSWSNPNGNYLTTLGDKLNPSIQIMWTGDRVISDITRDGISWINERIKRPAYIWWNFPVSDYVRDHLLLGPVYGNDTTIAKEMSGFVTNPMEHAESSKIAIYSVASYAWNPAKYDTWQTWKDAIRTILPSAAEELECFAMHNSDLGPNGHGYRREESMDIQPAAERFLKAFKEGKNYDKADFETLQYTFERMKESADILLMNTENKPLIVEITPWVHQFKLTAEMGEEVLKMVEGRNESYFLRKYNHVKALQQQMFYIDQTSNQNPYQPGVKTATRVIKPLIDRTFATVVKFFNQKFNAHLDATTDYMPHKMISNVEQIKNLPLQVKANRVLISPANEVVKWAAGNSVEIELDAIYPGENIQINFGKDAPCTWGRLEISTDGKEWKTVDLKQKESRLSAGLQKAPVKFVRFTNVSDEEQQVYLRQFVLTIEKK

[2] = biological target: T2, human O-GlcNAcase (Homo sapiens, UniProt O60502); conditions: read-out: KI [μM] / C-6-azido-NAG-thiazoline (2)
T2 construct: gene OGA; gene from D. Vocadlo; GH84
T2 sequence (O60502 1-916): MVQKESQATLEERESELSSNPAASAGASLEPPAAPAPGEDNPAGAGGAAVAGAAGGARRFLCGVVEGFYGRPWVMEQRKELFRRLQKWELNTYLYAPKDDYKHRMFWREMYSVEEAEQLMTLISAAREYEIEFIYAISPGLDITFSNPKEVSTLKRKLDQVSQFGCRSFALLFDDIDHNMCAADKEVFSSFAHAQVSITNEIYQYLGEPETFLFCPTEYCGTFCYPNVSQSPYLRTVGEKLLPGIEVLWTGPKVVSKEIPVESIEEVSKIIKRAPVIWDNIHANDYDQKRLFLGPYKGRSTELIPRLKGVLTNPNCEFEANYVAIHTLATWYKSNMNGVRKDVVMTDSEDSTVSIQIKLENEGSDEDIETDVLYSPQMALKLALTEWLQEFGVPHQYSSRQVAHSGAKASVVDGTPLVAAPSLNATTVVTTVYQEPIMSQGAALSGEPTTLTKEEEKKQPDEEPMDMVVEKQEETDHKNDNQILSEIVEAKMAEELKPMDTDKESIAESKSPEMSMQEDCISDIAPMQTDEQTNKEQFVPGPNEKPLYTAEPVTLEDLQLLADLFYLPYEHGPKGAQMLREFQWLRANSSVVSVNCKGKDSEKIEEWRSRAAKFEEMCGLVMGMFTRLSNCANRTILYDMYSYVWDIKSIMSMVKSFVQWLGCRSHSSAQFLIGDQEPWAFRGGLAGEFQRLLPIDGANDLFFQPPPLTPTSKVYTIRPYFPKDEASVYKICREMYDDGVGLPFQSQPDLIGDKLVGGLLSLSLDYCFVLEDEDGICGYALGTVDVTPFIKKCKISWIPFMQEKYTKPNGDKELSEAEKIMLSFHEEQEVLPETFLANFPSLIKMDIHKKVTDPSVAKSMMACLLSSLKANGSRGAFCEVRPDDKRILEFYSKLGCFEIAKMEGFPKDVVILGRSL

[3] = biological target: T3, β-N-acetylhexosaminidase from Talaromyces flavus (Talaromyces flavus, UniProt G5DAA0)
T3 construct: recombinant, secreted from Pichia pastoris, purified by cation exchange chromatography; GH20
T3 sequence (G5DAA0 18-628): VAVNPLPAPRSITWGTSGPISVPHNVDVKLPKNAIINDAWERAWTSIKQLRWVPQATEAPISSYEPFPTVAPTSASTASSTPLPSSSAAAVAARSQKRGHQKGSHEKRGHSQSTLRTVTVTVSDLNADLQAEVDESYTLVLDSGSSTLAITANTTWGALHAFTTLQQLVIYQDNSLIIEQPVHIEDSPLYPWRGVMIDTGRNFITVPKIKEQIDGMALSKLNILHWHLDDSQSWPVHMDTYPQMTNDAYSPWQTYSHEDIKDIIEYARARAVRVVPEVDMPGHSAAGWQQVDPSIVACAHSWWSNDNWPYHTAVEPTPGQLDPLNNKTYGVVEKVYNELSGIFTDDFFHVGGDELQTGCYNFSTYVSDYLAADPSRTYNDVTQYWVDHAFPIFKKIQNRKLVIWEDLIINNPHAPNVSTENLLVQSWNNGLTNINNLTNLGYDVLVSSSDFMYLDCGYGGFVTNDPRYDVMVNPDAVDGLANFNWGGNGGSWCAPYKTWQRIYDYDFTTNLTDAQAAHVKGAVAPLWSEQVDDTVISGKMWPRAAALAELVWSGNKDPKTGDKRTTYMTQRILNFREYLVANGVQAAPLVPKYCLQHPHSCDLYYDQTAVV

[4] = biological target: T4, β-N-acetylhexosaminidase from Streptomyces plicatus (Streptomyces plicatus, UniProt O85361); conditions: read-out: KI [μM] / NAG-thiazoline (1)
T4 construct: gene hex; synthetic gene, His6-tagged fusion in pET-15b (NdeI/BamHI), E. coli BL21(DE3) pLysS, Ni-NTA purified; GH20
T4 sequence (O85361 1-506): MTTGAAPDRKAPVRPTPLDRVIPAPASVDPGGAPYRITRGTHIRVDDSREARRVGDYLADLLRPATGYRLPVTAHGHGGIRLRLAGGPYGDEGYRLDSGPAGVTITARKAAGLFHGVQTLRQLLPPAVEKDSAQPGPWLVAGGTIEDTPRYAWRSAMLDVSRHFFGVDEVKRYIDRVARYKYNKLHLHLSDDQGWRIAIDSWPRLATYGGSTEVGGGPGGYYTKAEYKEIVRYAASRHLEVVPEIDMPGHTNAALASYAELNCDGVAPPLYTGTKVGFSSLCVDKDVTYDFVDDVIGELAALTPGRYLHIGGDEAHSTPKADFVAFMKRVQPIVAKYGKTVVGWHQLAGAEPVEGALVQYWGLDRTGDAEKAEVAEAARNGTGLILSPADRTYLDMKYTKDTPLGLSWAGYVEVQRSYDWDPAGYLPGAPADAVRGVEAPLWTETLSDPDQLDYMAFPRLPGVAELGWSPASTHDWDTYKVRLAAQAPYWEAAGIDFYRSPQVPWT

[5] = read-out: KI [μM] / C-6-azido-NAG-thiazoline (2)
[6] = read-out: KI [μM] / NAG-thiazoline (1)

Row | SMILES | Ki [1, 5] | Ki [2] | Ki [3, 5] | Ki [1, 6] | Ki [4] | Ki [3, 6]
1 | CC1=N[C@@H]2[C@@H](O)[C@H](O)[C@@H](CN=[N+]=[N-])O[C@@H]2S1 [compound 2, 6-Azido-1,2-dideoxy-2'-methyl-α-D-glucopyrano-[2,1-d]-∆2'-thiazoline] | 3.1 ± 0.3 µM | 19.3 ± 11.9 µM | 212 ± 16.3 µM |  |  | 
2 | CC1=N[C@@H]2[C@@H](O)[C@H](O)[C@@H](CO)O[C@@H]2S1 [compound 1, 1,2-Dideoxy-2'-methyl-α-D-glucopyrano-[2,1-d]-∆2'-thiazoline] |  |  |  | 0.029 ± 0.003 µM | 24 ± 5 µM | 42.7 ± 1.9 µM
